The subject of data set [1] is M. tuberculosis H37Rv-GFP inside Raw264.7 macrophages. The data set can be described thus: microbe, parasite or virus in culture. Conditions: Mycobacterium tuberculosis, 120 h, read-out: minimal inhibitory concentration (MIC).
The test system is the same in data set [2].
The test system of data set [3] is M. tuberculosis H37Rv-GFP. The data set is described as follows: microbe, parasite or virus in culture. Conditions: Mycobacterium tuberculosis, read-out: minimal inhibitory concentration (MIC).
For data set [4], the system named is M. tuberculosis H37Rv. The data set can be described thus: Bacteria killing activity by CFU counting, aerobic incubation. Type of data set: cell-based, Mycobacterium tuberculosis. The method, then:
FIG. 8 illustrates the colony forming units (CFUs) recovered from macrophages at different time points after infection with M. tuberculosis H37Rv. Cells were infected and treated with the indicated amount of pyridopyrimidione compound 71 (4 to 20 μM);
The bacteria killing activity of compound 71 was determined using the CFU counting method. Two-fold serial dilutions of compound 71 were incubated aerobically with H37Rv for 21 days at 37° C.

Data set [5] has as its system Primary human macrophages. The data set is described as follows: Cytotoxicity assay (resazurin, 5 days).
Data set [6] deals with M. tuberculosis H37Rv-GFP. The data set is described as follows: in vitro. Conditions: Mycobacterium tuberculosis.
In data set [7] the test system is M. tuberculosis H37Rv-GFP inside Raw264.7 macrophages. The data set is described as follows: in vitro. Conditions: mouse.
Data set [8] relates to BCG Pasteur-Tokyo. The data set can be described thus: microbe, parasite or virus in culture. Type of data set: cell-based. Conditions: Mycobacterium tuberculosis variant bovis BCG.
The subject of data set [9] is BJ- Skin. The data set can be described thus: Cytotoxicity assay (resazurin, 5 days). Type of data set: cell-based. Here is the method: (§1) In order to address compound toxicity, seven cell lines originating from different body tissues were cultivated in the presence of 3-fold dilutions of compounds starting from 100 μM. After 5 days of culture, cell viability was assessed by the resazurin test. Briefly, cells were incubated with 10 μg/mL of resazurin (Sigma-Aldrich St. Louis, Mo.) for 4 h at 37° C. under 5% CO2. Resofurin fluorescence (RFU) was measured as indicated above. Percentage of toxicity on cells was calculated as follows: Cytotoxicity (%)=(RFUDMSO−RFUBlank)−(RFUcompound−RFUblank)/(RFUDMSO−RFUBlank)×100. Percentage of cytotoxicity was plotted against compound concentration and the minimal toxic concentration (MTC50) was determined by non-linear regression analysis as the lowest compound concentration where fifty percent toxicity was observed on the corresponding cell line.
(§2) To address the issue of toxicity, compound 133 was tested on a panel of seven cell lines derived from different body tissue. Cells were incubated with increasing amounts of compound and cell viability was assessed with resazurin after 5 days of co-incubation. Percentage of cytotoxicity was determined by taking as a reference the resofurin fluorescence measured by DMSO containing wells. The concentration where fifty percent of the cells died was defined as the Minimal Toxic Concentration (MTC50).

Data set [10] has as its system Jurkat -T-cell. The data set is described as follows: Cytotoxicity assay (resazurin, 5 days). Type of data set: cell-based. The method, then:
as §1, §2

The test system of data set [11] is HEK293- Kidney. The data set can be described thus: Cytotoxicity assay (resazurin, 5 days). The data set is classed as cell-based. Conditions: HEK293, 5 days. Here is the method: as §1, §2
In data set [12] the test system is SK-N-SH -Brain. The data set is described as follows: Cytotoxicity assay (resazurin, 5 days). The data set is classed as cell-based. Here is the method: as §1, §2
Data set [13] has as its system THP-1 - Monocytes. The data set is described as follows: Cytotoxicity assay (resazurin, 5 days). Type of data set: cell-based. Conditions: THP-1, 5 days. The method, then: as §1, §2
For data set [14], the system named is HepG2-Hepatocytes. The data set can be described thus: Cytotoxicity assay (resazurin, 5 days). Conditions: HepG2, 5 days. Type of data set: cell-based. The method, then:
as §1, §2

Data set [15] deals with MRC5- Lung. The data set is described as follows: Cytotoxicity assay (resazurin, 5 days). The data set is classed as cell-based. Conditions: MRC5, 5 days. The method, then: as §1, §2
The test system of data set [16] is M. tuberculosis H37Ra. The data set can be described thus: MIC on laboratory strain, in vitro bacterial growth assay. Type of data set: cell-based. Conditions: Mycobacterium tuberculosis.
Data set [17] deals with Staphylococcus aureus, S. epidermis, S. capitis, S. xylosus, Micrococcus luteus, Listeria innocua, Lactobacillus gallinarum, group G Streptococcus …. The data set is described as follows: Antimicrobial spectrum on clinical isolates, Gram-positive. Type of data set: cell-based, Gram-positive bacteria.
Data set [18] has as its system M. tuberculosis H37Rv in human macrophages. Type of data set: cell-based, Mycobacterium tuberculosis.
For data set [19], the system named is C. striatum, C. jeikeium. The data set is described as follows: Antimicrobial spectrum on clinical isolates, Corynebacterium. The data set is classed as cell-based.
Data set [20] has as its system seven cell lines derived from different body tissue. The data set is described as follows: Cytotoxicity assay on a panel of seven cell lines. The data set is classed as cell-based. Conditions: all tested cell lines, 5 days of co-incubation. The method, then:
as §1, §2

For data set [21], the system named is Candida albicans, C. glabrata, C. parapsilosis. The data set is described as follows: Antimicrobial spectrum on clinical isolates, Fungi. The data set is classed as cell-based.
Data set [22] relates to M. tuberculosis H37Rv. The data set is described as follows: MIC on laboratory strain, in vitro bacterial growth assay. Type of data set: cell-based. Conditions: Mycobacterium tuberculosis.
The subject of data set [23] is Primary BMDM. The data set can be described thus: Cytotoxicity assay (resazurin, 5 days).
Data set [24] concerns M. tuberculosis H37Rv in mouse macrophages. The data set can be described thus: CFU determination in infected mouse macrophages. Conditions: mouse cells, seven days after infection. Type of data set: cell-based, Mycobacterium tuberculosis.
The subject of data set [25] is Acinetobacter baumannii, Escherichia coli, Enterobacter cloacae, E. aerogenes, Klebsiella oxytoca, Pseudomonas aeruginosa, Salmonella enteridis, Vibrio mimicus. The data set can be described thus: Antimicrobial spectrum on clinical isolates, Gram-negative. The data set is classed as cell-based, Gram-negative bacteria.
The subject of data set [26] is M. smegmatis mc^2 155. The data set can be described thus: MIC on fast growing mycobacteria. The data set is classed as cell-based, Mycobacterium smegmatis.
Data set [27] relates to M. tuberculosis clinical isolates. Type of data set: cell-based, Mycobacterium tuberculosis.
For data set [28], the system named is M. tuberculosis in primary macrophages. Type of data set: cell-based, Mycobacterium tuberculosis.

The text below walks through data of patent US20130012506A1 (priority 2010, published 2013).

≈ marks a conversion by molar mass, not a printed value. Like-named read-outs stand apart in the source and are kept apart here.

For `CNC(=O)c1c(Nc2ccc(F)c(Cl)c2)nc2c(OC)cccn2c1=O`, the melting point was 218 °C (dec.).
For `COc1cccn2c(=O)c(CO)c(Nc3ccc(F)c(F)c3)nc12`, the melting point was 231 °C (dec.).
For the molecule `Cn1cnc2ccc(Nc3nc4c(F)cccn4c(=O)c3CO)cc21`, the melting point is 209 °C (dec.).
Molecule `COc1cccn2c(=O)c(Br)c(Nc3ccc4ncccc4c3)nc12` displayed a melting point of 248 to 249 °C.
Same read-out and setting: with `COC(=O)c1ccc(Nc2nc3c(OC)cccn3c(=O)c2CO)nc1` the figure was 231 to 232 °C (dec.).
As for `NNC(=O)c1ccncc1` [INH, isoniazid], the MIC in data set [1] was determined as 0.1 µg/mL (≈ 0.729 µM). In addition, in data set [2], the “Calculated MICs from the image based quantification of the infection ratio” value is 0.16 ± 0.05 µg/mL and the “cells that appear to be infected” value was found to be 10%. Moreover, the MIC in data set [3] was 0.1 µg/mL (≈ 0.729 µM).
On to `COc1cccn2c(=O)c(CO)c(Nc3ccc4ncccc4c3)nc12` [compound 71, 3-(Hydroxymethyl)-9-methoxy-2-(quinolin-6-ylamino)-4H-pyrido[1,2-a]pyrimidin-4-one], for which the “growth of M. tuberculosis (CFU)” value in [4] (0.04 to 20 μM, H37Rv, 21 days at 37° C.) was “strongly inhibited the growth of M. tuberculosis”. In addition, the “bacteria killing activity (CFU)” value in [4] (after 2 days of incubation) was “fast bacteria killing activity even at the lowest concentration”.
For `Cc1cccn2c(=O)c(C=O)c(Nc3cccc(Cl)c3)nc12` [compound 133, 2-(3-Chlorophenylamino)-9-methyl-4-oxo-4H-pyrido[1,2-a]pyrimidine-3-carbaldehyde], the “Range of MTC50” value in [5], in data set [9], in data set [10], in data set [11], in data set [12] and in [13] was above 100 µM each time. For the same molecule, the “Range of MTC50” value in data set [14], in data set [15] and in data set [23] was above 100 µM throughout. Further, the selectivity ratio in data set [6] and in data set [7] was above 50 each time. Also, the MIC was 2 µM (≈ 0.627 µg/mL) in data set [8]; 2 µM (≈ 0.627 µg/mL) in [16]; 2 µM (≈ 0.627 µg/mL) in data set [22]; “no effect” in [26]; above 100 µM in [26] (Mycolicibacterium smegmatis, MC^2155, read-out: MIC). The “Antibacterial activity & Specificity” value in data set [17], in data set [19], in data set [21] and in data set [25] was “NE (NE: No effect up to 100 μg/mL equivalent to 320 μM)” in each case. For the same molecule, the “decrease in the number of CFUs” value in data set [18] and in data set [24] was “ten-fold decrease in the number of CFUs” in each case. For the same molecule, in data set [20], the “cytotoxicity (Minimal Toxic Concentration, MTC50)” value was above 100 µM. In addition, the “Range of MICs for multiple strains (μM)” value in [27] (Drug Sensitive, Tissue, 2 isolates) is reported as 2.5-5^ μM; in data set [27] (XDR, Tissue, 5 isolates), 0.3-5^ μM. Moreover, the “Range of MICs for multiple strains” value is 0.3 to 1.2 µM in data set [27] (INH^R RIF^R Strep^R, Sputum, 3 isolates); 1.2 µM in [27] (INH^R RIF^R Strep^R, Tissue, 1 isolate); 0.3 to 1.2 µM in data set [27] (MDR, Sputum, 3 isolates); 1.2 µM in data set [27] (MDR, Tissue, 1 isolate); 2.5 µM in data set [27] (RIF^R, Sputum, 1 isolate); 1.2 µM in data set [27] (RIF^R, Tissue, 1 isolate). In addition, the “Range of MICs for multiple strains” value in data set [27] (XDR, Sputum, 4 isolates) fell in the range of 0.6 to 2.5 µM.
On to `Cc1cccn2c(=O)c(CO)c(Nc3cccc(Cl)c3)nc12` [compound 232, 2-(3-Chlorophenylamino)-3-(hydroxymethyl)-9-methyl-4H-pyrido[1,2-a]pyrimidin-4-one], for which the “decrease in the number of CFUs” value in data set [18] and in [24] was “ten-fold decrease in the number of CFUs” in each case. In addition, the “bacterial load and host cell abundance” value in data set [28] is “harbored fewer bacteria compared to DMSO control and were more abundant”.
Regarding `CO[C@H]1/C=C/O[C@@]2(C)Oc3c(C)c(O)c4c(O)c(c(/C=N/N5CCN(C)CC5)c(O)c4c3C2=O)NC(=O)/C(C)=C\C=C\[C@H](C)[C@H](O)[C@@H](C)[C@@H](O)[C@@H](C)[C@H](OC(C)=O)[C@@H]1C` [rifampin], in data set [2], the “Calculated MICs from the image based quantification of the infection ratio” value was 2.4 ± 1.3 µg/mL and the “cells that appear to be infected” value stood at 10%.
